Results taken from ChEMBL document CHEMBL4190355, “Allosteric Modulators of the M4 Muscarinic Acetylcholine Receptor” (ACS Med Chem Lett, 2017).

Each compound was assayed against T1, Muscarinic acetylcholine receptor M4 (Homo sapiens) (UniProt P08173) (assay: Positive allosteric modulation of human muscarinic acetylcholine receptor M4 expressed in CHOK1 cells assessed as increase in acetylcholine-induced […] preincubated for 4 mins followed by acetylcholine addition measured for 3.5 mins by FLIPR assay).
T1 sequence (whole entry): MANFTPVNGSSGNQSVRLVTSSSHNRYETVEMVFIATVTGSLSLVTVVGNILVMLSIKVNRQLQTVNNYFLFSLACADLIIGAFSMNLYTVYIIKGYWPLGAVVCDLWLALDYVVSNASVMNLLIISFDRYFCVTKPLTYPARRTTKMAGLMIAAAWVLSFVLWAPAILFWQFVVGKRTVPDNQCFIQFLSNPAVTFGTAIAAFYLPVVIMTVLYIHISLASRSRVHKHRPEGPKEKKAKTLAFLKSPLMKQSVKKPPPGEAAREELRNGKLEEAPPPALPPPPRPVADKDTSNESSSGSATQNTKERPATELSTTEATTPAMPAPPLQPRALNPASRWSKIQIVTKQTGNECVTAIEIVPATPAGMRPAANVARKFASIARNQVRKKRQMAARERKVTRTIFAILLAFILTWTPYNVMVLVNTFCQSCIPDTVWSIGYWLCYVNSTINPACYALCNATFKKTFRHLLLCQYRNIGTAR
Assay type: functional, cell-based

| Structure (SMILES) | IP [µM] |
| --- | --- |
| Cc1cc2c(nc1N1CCC(OC[C@@]3(C)C[C@H]3C#N)CC1)CNC2=O | 30 |
| Cc1cc2c(nc1N1CCC(Oc3cnc4[nH]nc(C)c4c3)CC1)CNC2=O | 6.07 |
| COCCOC1CCN(c2nc3c(cc2C)C(=O)NC3)CC1 | 11.2 |
| Cc1cc2c(nc1N1CCC(OC3CCOC3)CC1)CNC2=O (centres undefined) | 11.3 |

More lines, now with the values ahead:

| IP [µM] | Structure (SMILES) |
| --- | --- |
| 240 | CCN1C(=O)c2c(nc(N3CCC(Oc4ccc5c(c4)COC5)CC3)c(C)c2C)[C@@H]1CO |
| 8.06 | COc1ccc(O[C@@H]2CCN(c3nc4c(cc3C)C(=O)N(C)[C@H]4CO)C[C@H]2F)cn1 |
| 8.62 | CCOc1ccc(OC2CCN(c3nc4c(cc3C)C(=O)N(C)[C@H]4CO)CC2)cn1 |
| 30 | COc1ccc(O[C@H]2CCN(c3nc4c(cc3C)C(=O)NC4)C[C@H]2C)cn1 |
| 30 | Cc1cc2c(nc1N1CCC(Oc3ccc4c(n3)COC4)CC1)[C@H](CO)N(C)C2=O |
